Values quoted from earlier work as cited in patent publication EP1862927B1, “Descriptors of three-dimensional objects, uses thereof and a method to generate the same” (SILICOS NV, priority 2006, dated 2007).

Molecular target: T1, human soluble epoxide hydrolase (Homo sapiens, UniProt P34913)
T1 sequence (P34913 1-555): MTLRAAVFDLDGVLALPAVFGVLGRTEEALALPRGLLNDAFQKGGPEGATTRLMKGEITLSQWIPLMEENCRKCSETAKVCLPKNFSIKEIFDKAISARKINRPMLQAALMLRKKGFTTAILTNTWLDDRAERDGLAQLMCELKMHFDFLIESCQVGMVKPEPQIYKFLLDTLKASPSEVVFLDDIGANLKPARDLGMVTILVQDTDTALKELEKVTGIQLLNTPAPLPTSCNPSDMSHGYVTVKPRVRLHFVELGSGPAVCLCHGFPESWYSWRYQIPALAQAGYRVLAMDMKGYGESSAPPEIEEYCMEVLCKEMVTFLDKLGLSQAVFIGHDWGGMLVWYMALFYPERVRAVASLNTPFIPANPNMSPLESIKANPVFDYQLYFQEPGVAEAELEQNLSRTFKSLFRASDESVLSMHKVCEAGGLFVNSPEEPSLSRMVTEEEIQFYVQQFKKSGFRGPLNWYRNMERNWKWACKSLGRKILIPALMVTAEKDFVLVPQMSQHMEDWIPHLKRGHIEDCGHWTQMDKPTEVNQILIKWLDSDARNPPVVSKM
Conditions: inhibition constants of urea-like molecular species taken from McElroy et al., J. Med. Chem. 46, 1066-1080

O=C(NCC1CCCCC1)NC1C2CC3CC(C2)CC1C3 (stereo not shown) [molecular species 136]
IC50: 100 nM
